Measured values from patent US20240383856A1 (Zedira GmbH, priority 2021, published 2024).

How the values were obtained:
[1] = Caco-2 permeability assay (CacoReady kit); assay type: in vitro ADME; details: human, Caco-2, Caco-2 barrier, CacoReady kit; above 1×10^−6 cm/s classified as permeable
Protocol: Permeability coefficients (Papp values) were obtained from Caco-2 barrier studies predicting oral/intestinal bioavailability of the tested compounds. The assays were performed by using CacoReady™ ready-to-use kits from ReadyCell according to the manufacturers protocol.

[2] = molecular target: T1, recombinant human transglutaminase 2 (Homo sapiens, UniProt P21980); test: Transglutaminase assay (DCC-assay): incorporation of dansylcadaverine into dimethylcasein; assay type: biochemical; details: recombinant human TG2 10 nM; dansylcadaverine incorporation into dimethylcasein; read-out: IC50 TG2
T1 construct: purchased Zedira T022
T1 sequence (P21980 1-687): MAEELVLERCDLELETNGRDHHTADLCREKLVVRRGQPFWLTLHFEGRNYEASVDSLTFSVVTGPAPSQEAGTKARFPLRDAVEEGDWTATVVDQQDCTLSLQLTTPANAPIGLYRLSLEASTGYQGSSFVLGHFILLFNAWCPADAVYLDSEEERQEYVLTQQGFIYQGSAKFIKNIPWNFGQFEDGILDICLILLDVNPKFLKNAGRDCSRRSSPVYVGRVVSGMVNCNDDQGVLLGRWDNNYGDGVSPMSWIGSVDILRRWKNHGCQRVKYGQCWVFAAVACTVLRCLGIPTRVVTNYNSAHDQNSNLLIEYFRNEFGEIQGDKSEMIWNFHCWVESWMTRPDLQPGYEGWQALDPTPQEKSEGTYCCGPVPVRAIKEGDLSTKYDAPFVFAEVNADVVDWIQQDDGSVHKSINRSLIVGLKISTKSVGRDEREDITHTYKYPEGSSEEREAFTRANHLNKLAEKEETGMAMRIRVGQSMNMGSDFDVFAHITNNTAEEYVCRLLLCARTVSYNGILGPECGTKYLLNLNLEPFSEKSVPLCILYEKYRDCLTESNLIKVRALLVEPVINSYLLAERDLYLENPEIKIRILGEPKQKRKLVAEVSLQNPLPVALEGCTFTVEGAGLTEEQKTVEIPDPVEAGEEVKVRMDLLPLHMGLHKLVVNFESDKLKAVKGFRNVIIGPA
Protocol: To illustrate the advantage of branched alkyl moieties over aromatic moieties, we refer to reference compounds Ref. 2 (ZED1227, U.S. Pat. No. 9,434,763 B2) and Ref. 3 (A8, ZED1047). Inhibition data were determined using the classical fluorescent transamidation assay (dansylcadaverine incorporation into methylated casein, DCC-assay) as described [Buchold, C.; Hils, M.; Gerlach, U.; Weber, J.; Pelzer, C.; Heil, A.; Aeschlimann, D.; Pasternack, R. Features of ZED1227: The First-In-Class Tissue Transglutaminase Inhibitor Undergoing Clinical Evaluation for the Treatment of Celiac Disease. Cells 2022, 11, 1667. https://doi.org/10.3390/cells11101667]. Casein is one of the best known high molecular weight (24 kDa) protein substrates for transglutaminases. Please note, the IC50 value of Ref. 3 (A8) published in U.S. Pat. No. 9,434,763 B2 cannot be compared to the present data, relying on a fluorogenic isopeptidase assay.
To this extent, inhibition data were determined using the classical fluorescent transamidation assay (dansylcadaverine incorporation into methylated casein, DCC-assay) as described in Büchold et al. [Büchold, C.; Hils, M.; Gerlach, U.; Weber, J.; Pelzer, C.; Heil, A.; Aeschlimann, D.; Pasternack, R. Features of ZED1227: The First-In-Class Tissue Transglutaminase Inhibitor Undergoing Clinical Evaluation for the Treatment of Celiac Disease. Cells 2022, 11, 1667. https://doi.org/10.3390/cells11101667]. Casein is one of the best known high molecular weight (24 kDa) protein substrates for transglutaminases. Inhibition data of the inventive compounds was compared with inhibition of compounds disclosed in U.S. Pat. No. 9,434,763 B2, particularly, compound A8, which is denoted herein as Reference 3. It is noteworthy that the IC50 values of compounds A8 published in U.S. Pat. No. 9,434,763 B2 and E16 from U.S. Pat. No. 11,072,634 B2 cannot be compared to the present data, relying on a fluorogenic isopeptidase assay.
For the determination of potency of inhibitors against tissue transglutaminase, the incorporation of dansylcadaverine into dimethylcasein (Zedira product T036, Lorand et al., Anal Biochem, 1971, 44:221-31) was measured using recombinant human transglutaminase 2 (Zedira Product T022).
The tissue transglutaminase is diluted in buffer (50 mM Tris-HCl, 7.5 mM CaCl2), 150 mM NaCl, pH=7.4). The final concentration of TG2 in the assay is 10 nM.
A 10 mM inhibitor stock solution is prepared in DMSO, and from this a serial 1:2-fold dilution series is prepared also in DMSO. Each of the initial dilutions is subsequently diluted 1:50-fold with buffer (50 mM Tris-HCl, 7.5 mM CaCl2), 150 mM NaCl, pH=7.4) to yield the final working dilutions containing 2% (v/v) DMSO.
15 μl of inhibitor working dilution are added per well of a 96 well microtiter plate. As control, 15 μl of a 2% (v/v) DMSO solution prepared using the buffer mentioned above are added per well.
Immediately before starting the assay, 600 μl transglutaminase working solution are added to 11.4 ml assay buffer (50 mM Tris-HCl, 10 mM CaCl2), 10 mM glutathione, 2.5% glycerol, 16.7 µM dansylcadaverine, 4 uM N,N-dimethylcasein, 200 mM NaCl, pH=8.0). 285 μl of this reaction mix are added per well containing the inhibitor.
Increase in fluorescence is measured using λex=330 nm and λem=500 nm at 37° C. for 30 min. A slope of the increase in fluorescence between 20 and 30 min is calculated for determination of the IC50 value (inhibitor concentration at which 50% of the initial activity is blocked).
Analysis of enzymatic activity is performed by calculation of the slope of an increase in fluorescence intensity. IC50 values are calculated by plotting the enzymatic activity (as percentage from control containing 2% DMSO instead of inhibitor) against the inhibitor concentration. IC50 is defined as the inhibitor concentration blocking 50% of initial enzyme activity.

[3] = logD by shake flask method (octanol / PBS pH 7.4, HPLC); assay type: physicochemical; details: octanol / PBS pH 7.4, shake flask
Protocol: In order to classify the inventive compounds according to their lipophilicity, LogD values (distribution coefficient) were determined by means of the well-established shake flask method, measuring the partition of a compound between an octanol and phosphate-buffered saline (PBS, pH 7.4) by HPLC.
The LogD is pH dependent and is a “predictor” for in-vivo properties. LogD combines lipophilicity (intrinsic structural property of the molecule, logP) and ionizability (pKa). Compounds with a moderate lipophilicity (LogD values from 0 to 3) are usually advantaged for oral absorption, being in balance between solubility and permeability. However, sophisticated formulation of a compound might improve oral bioavailability for highly lipophilic compounds.

Structure (SMILES) | Papp [1] | IC50 [2] | logD [3]
CNC(=O)C(=O)CC[C@H](NC(=O)c1sc(C(F)(F)F)nc1Br)C(=O)Nc1cccn(CC(=O)NC2C3CC4CC(C3)CC2C4)c1=O (stereo partly drawn) [II-16, (S)-2-(4-bromo-2-(trifluoromethyl)thiazole-5-carboxamido)-N1-(1-(2-(2-adamantylamino)-2-oxoethyl)-2-oxo-1,2-dihydropyridin-3-yl)-N6-methyl-5-oxohexanediamide] | 1 to 10 ×10⁻⁶ cm/s | < 40 nM | 1 to 3
CNC(=O)C(=O)CC[C@H](NC(=O)c1sc(Cl)nc1Cl)C(=O)Nc1cccn(CC(=O)NC2C3CC4CC(C3)CC2C4)c1=O (stereo partly drawn) [II-17, (S)-2-(2,4-dichlorothiazole-5-carboxamido)-N1-(1-(2-(2-adamantylamino)-2-oxoethyl)-2-oxo-1,2-dihydropyridin-3-yl)-N6-methyl-5-oxohexanediamide] | 1 to 10 ×10⁻⁶ cm/s | 40 to 400 nM | 1 to 3
CNC(=O)C(=O)CC[C@H](NC(=O)c1sc(OC)nc1C)C(=O)Nc1cccn(CC(=O)NC2C3CC4CC(C3)CC2C4)c1=O (stereo partly drawn) [II-18, (S)-N1-(1-(2-(2-adamantylamino)-2-oxoethyl)-2-oxo-1,2-dihydropyridin-3-yl)-2-(2-methoxy-4-methylthiazole-5-carboxamido)-N6-methyl-5-oxohexanediamide] | < 1 ×10⁻⁶ cm/s | 40 to 400 nM | 1 to 3
CNC(=O)C(=O)CC[C@H](NC(=O)c1sc(-c2ccccc2)nc1C)C(=O)Nc1cccn(CC(=O)NC2C3CC4CC(C3)CC2C4)c1=O (stereo partly drawn) [II-19, (S)-N1-(1-(2-(2-adamantylamino)-2-oxoethyl)-2-oxo-1,2-dihydropyridin-3-yl)-N6-methyl-2-(4-methyl-2-phenylthiazole-5-carboxamido)-5-oxohexanediamide] | < 1 ×10⁻⁶ cm/s | 40 to 400 nM | 3 to 5
CNC(=O)C(=O)CC[C@H](NC(=O)c1sc(C)nc1C)C(=O)Nc1cccn(CC(=O)NC2C3CC4CC(C3)CC2C4)c1=O (stereo partly drawn) [II-20, (S)-2-(2,4-dimethylthiazole-5-carboxamido)-N1-(1-(2-(2-adamantylamino)-2-oxoethyl)-2-oxo-1,2-dihydropyridin-3-yl)-N6-methyl-5-oxohexanediamide] | 1 to 10 ×10⁻⁶ cm/s | 400 to 2500 nM | 1 to 3
CNC(=O)C(=O)CC[C@H](NC(=O)c1sc(Br)cc1C)C(=O)Nc1cccn(CC(=O)NC2C3CC4CC(C3)CC2C4)c1=O (stereo partly drawn) [II-21, (S)-2-(5-bromo-3-methylthiophene-2-carboxamido)-N1-(1-(2-(2-adamantylamino)-2-oxoethyl)-2-oxo-1,2-dihydropyridin-3-yl)-N6-methyl-5-oxohexanediamide] | 1 to 10 ×10⁻⁶ cm/s | < 40 nM | 3 to 5

Next, values leading:

Papp [1] | IC50 [2] | logD [3] | Structure (SMILES)
1 to 10 ×10⁻⁶ cm/s | < 40 nM | 3 to 5 | CNC(=O)C(=O)CC[C@H](NC(=O)c1sc(Br)cc1Br)C(=O)Nc1cccn(CC(=O)NC2C3CC4CC(C3)CC2C4)c1=O (stereo partly drawn) [II-22, (S)-2-(3,5-dibromothiophene-2-carboxamido)-N1-(1-(2-(2-adamantylamino)-2-oxoethyl)-2-oxo-1,2-dihydropyridin-3-yl)-N6-methyl-5-oxohexanediamide]
1 to 10 ×10⁻⁶ cm/s | 40 to 400 nM | 3 to 5 | CNC(=O)C(=O)CC[C@H](NC(=O)c1ccc(Br)s1)C(=O)Nc1cccn(CC(=O)NC2C3CC4CC(C3)CC2C4)c1=O (stereo partly drawn) [II-23, (S)-2-(5-bromothiophene-2-carboxamido)-N1-(1-(2-(2-adamantylamino)-2-oxoethyl)-2-oxo-1,2-dihydropyridin-3-yl)-N6-methyl-5-oxohexanediamide]
1 to 10 ×10⁻⁶ cm/s | 40 to 400 nM | 1 to 3 | CNC(=O)C(=O)CC[C@H](NC(=O)c1ccc(Cl)s1)C(=O)Nc1cccn(CC(=O)NC2C3CC4CC(C3)CC2C4)c1=O (stereo partly drawn) [II-24, (S)-2-(5-chlorothiophene-2-carboxamido)-N1-(1-(2-(2-adamantylamino)-2-oxoethyl)-2-oxo-1,2-dihydropyridin-3-yl)-N6-methyl-5-oxohexanediamide]
1 to 10 ×10⁻⁶ cm/s | 40 to 400 nM | 1 to 3 | CNC(=O)C(=O)CC[C@H](NC(=O)c1oc(Br)cc1C)C(=O)Nc1cccn(CC(=O)NC2C3CC4CC(C3)CC2C4)c1=O (stereo partly drawn) [II-25, (S)-2-(5-bromo-3-methylfuran-2-carboxamido)-N1-(1-(2-(2-adamantylamino)-2-oxoethyl)-2-oxo-1,2-dihydropyridin-3-yl)-N6-methyl-5-oxohexanediamide]
1 to 10 ×10⁻⁶ cm/s | 40 to 400 nM | 1 to 3 | CNC(=O)C(=O)CC[C@H](NC(=O)c1ccc(Cl)o1)C(=O)Nc1cccn(CC(=O)NC2C3CC4CC(C3)CC2C4)c1=O (stereo partly drawn) [II-26, (S)-2-(5-chlorofuran-2-carboxamido)-N1-(1-(2-(2-adamantylamino)-2-oxoethyl)-2-oxo-1,2-dihydropyridin-3-yl)-N6-methyl-5-oxohexanediamide]
1 to 10 ×10⁻⁶ cm/s | 40 to 400 nM | 1 to 3 | CNC(=O)C(=O)CC[C@H](NC(=O)c1csc(Cl)c1)C(=O)Nc1cccn(CC(=O)NC2C3CC4CC(C3)CC2C4)c1=O (stereo partly drawn) [II-27, (S)-2-(5-chlorothiophene-3-carboxamido)-N1-(1-(2-(2-adamantylamino)-2-oxoethyl)-2-oxo-1,2-dihydropyridin-3-yl)-N6-methyl-5-oxohexanediamide]
1 to 10 ×10⁻⁶ cm/s | < 40 nM | 3 to 5 | CNC(=O)C(=O)CC[C@H](NC(=O)c1cc(Br)sc1Br)C(=O)Nc1cccn(CC(=O)NC2C3CC4CC(C3)CC2C4)c1=O (stereo partly drawn) [II-29, (S)-2-(2,5-dibromothiophene-3-carboxamido)-N1-(1-(2-(2-adamantylamino)-2-oxoethyl)-2-oxo-1,2-dihydropyridin-3-yl)-N6-methyl-5-oxohexanediamide]
